# According to a melting point compilation (Tetko et al.; mined from patent text by program, amines drawn as free bases though some values may be those of a salt):
row,Structure (SMILES),melting point [°C]
1,CCOC(=O)c1[nH]c2ccccc2c1Br,150 to 152
2,COc1cc(C)nc(NC(=O)NS(=O)(=O)c2cccc3cc[nH]c23)n1,207 to 209
3,CN(C)C(=O)Sc1ccc2ccncc2c1Cl,140 to 142
4,COc1ccc2c(c1)Sc1cc(OC)ccc1N2,194 to 196
5,Oc1cccc(C=Cc2nc(-c3ccccc3)c(-c3ccccc3)o2)c1,201 to 203
6,CCOC(=O)c1c(N2CC3CC2CN3)c2cc(C)ccc2n(Cc2ccccc2)c1=O (stereo not drawn),> 72
7,COC(=O)C=Cc1cnc(N2CCC[C@H]2CO)nc1NCc1ccc(OC)c(Cl)c1,163 to 164
8,Cc1nc(N)c2nc(C)n(CCOCCCc3cccnc3)c2c1C,109 to 110
9,Cn1nnnc1Cn1nnnc1Cl,138 to 140
10,CCOC(=O)[C@@H](Cc1ccccc1)C[C@H](Cc1ccccc1)C(=O)NCCC(=O)O (relative stereo),84 to 86
11,Cc1cccc(-c2[nH]c(C(C)C)nc2-c2cccc(-c3ccc(N)cn3)c2)n1,119 to 124
12,CCOc1cc(CCCN2CCc3cc(OC)c(OC)cc3C2)ccc1NC(=O)c1cccc2c(=O)c3cccc(F)c3[nH]c12,200
13,C#CC(=O)NCc1ccccc1,165 to 167
14,Cn1c(=O)ccc2cnc(NCCc3ccccn3)nc21,155 to 156
15,FC(F)c1nc2ccccc2n1-c1nc(N2CCOCC2)nc(N2CCOCC2)n1,211 to 214
16,O=C(NCc1ccccc1)c1ccnc(NC(=O)c2cccs2)c1,160 to 162
17,COc1ccc2c(c1)N(C(C)=O)c1cccc(SC)c1S2,106 to 108
18,Cc1c(O)cc2c(c1Br)[C@H](O)[C@H](N1CCC(O)(c3ccc(F)cc3)CC1)CO2 (relative stereo),196
19,O=C(OCC1OC(n2cnc3c(N(C(=O)c4ccccc4)C(=O)c4ccccc4)ncnc32)C(O)(C(=O)c2ccccc2)C1(O)C(=O)c1ccccc1)c1ccccc1 (stereo not drawn),183 to 184
20,O=C(c1ccc(I)cc1)c1ccc2c(c1)c(-c1cccc(Cl)c1)nc1nnnn12,175
21,O=C1c2cccc3cc(OCCO)cc(c23)C(=O)N1O,242 to 244
22,CCCCCOc1cc(C(=O)O)cc([N+](=O)[O-])c1-c1ccccc1,144 to 146
23,CCCCC1=NC2(CCCC2)C(=O)N1Cc1ccc(-c2ccccc2S(=O)(=O)Nc2onc(C)c2C)c(COCC)c1,74 to 80

row,Structure (SMILES),melting point [°C]
1,Fc1cccc(F)c1C1=NC(C2(OC(F)(F)F)C=CC(c3ccccc3)=CC2)CS1 (stereo not drawn),85 to 86
2,CCCn1cc(C2(c3cccc(-c4cccnc4F)c3)N=C(N)N(C)C2=O)cc1C(=O)CC (stereo not drawn),118
3,CCOP(=O)(OCC)C(CC(C(=O)Nc1ccccc1)C(=O)c1ccccc1)P(=O)(OCC)OCC (stereo not drawn),104 to 105
4,CCCc1c(C(=O)C(C)C)c2ccc(C(N)=O)cc2n1Cc1ccccc1C,190 to 191
5,CCCCCCCCCCCCc1ccc(S(=O)(=O)Nc2nnc(CC(=O)OCC)s2)cc1,108 to 109
6,Nc1sc2c(c1C(=O)c1ccc3ccccc3c1)CCN(Cc1ccc(Cl)cc1)C2,105 to 108
7,Cc1[nH]n(Cc2cc([N+](=O)[O-])ccc2Cl)c2nc(-c3ccncc3)nc(=O)c1-2,290 to 291
8,COC(=O)CCCc1cc2nc(Cl)ccc2n1S(=O)(=O)c1ccc(N(C)C)cc1Cl,123 to 124
9,N#Cc1ccc(Cn2cncn2)cc1-c1ccc(O)cc1,211 to 213
10,CCN(CC)c1nc(C)nc2scnc12,41.6 to 43
11,CN1CCSc2c(C(=O)NC3CN4CCC3CC4)cc(Cl)cc21 (stereo not drawn),195 to 196
12,COC(=O)C1Oc2ccc(C)cc2Cc2cc(C)ccc2O1,158 to 160
13,COc1ccc(CNc2cnn[nH]2)cc1OC1CCCC1,113 to 114
14,COc1ccc(C2CNC(=O)C2)cc1OS(=O)(=O)C(F)(F)F (stereo not drawn),99 to 101
15,O=C(Oc1ccccc1)c1ccccc1S,135
16,CCCCCCCCCCCCCCCCCCOC(=O)ON1C(=O)c2ccccc2C1=O,83 to 89
17,CCc1cccc(C)c1CNc1cc(C(=O)N(C)C)nc2c(C)c(C)[nH]c12,260 to 262
18,Cc1nc(-c2ccccc2C(F)(F)F)c(CCC(=O)O)o1,118 to 119
19,Nc1ccc2c(c1)OCC21C(=O)N(CC2CCCO2)c2ccccc21 (stereo not drawn),71 to 74
20,C[Si](C)(C)c1ccc(O)c(C(=O)C=C(O)c2ccc(C(=O)O)cc2)c1,207 to 209
21,C=CCN1C(=O)C(C)(C)c2ccc(-c3nc4ccccc4[nH]3)cc21,197 to 200
22,CC(=C(c1ccc(N(C)C)cc1)c1ccc(N(C)C)cc1)P(c1ccccc1)c1ccccc1,95 to 97
23,COc1ccc(O)c(C2(CCCCSC)Sc3ccccc3N(C)C2=O)c1 (stereo not drawn),148 to 150

row,Structure (SMILES),melting point [°C]
1,Cc1ccc(N2C(=O)c3ccccc3NC2c2ccc(=O)[nH]c2)cc1C(F)(F)F (stereo not drawn),250 to 251
2,CN(C)CCCCC(N)=O,86 to 87
3,O[C@H]1c2cc(OCc3ccc4ccccc4c3)ccc2OC[C@H]1Oc1cccnc1 (relative stereo),156 to 157
4,CC(O)(C(=O)Nc1ccc(C(=O)c2ccccc2)c(F)c1)C(F)(F)F (stereo not drawn),132 to 134
5,Cc1cc(Oc2ccc(S(C)(=O)=O)nc2)ccc1[N+](=O)[O-],138 to 140
6,CN1CCC(=C2c3ccccc3Sc3ccc(SC(F)(F)F)cc32)CC1,104 to 106
7,CC1(C)CC(NCCCCCCC(=O)O)CC(C)(C)N1,162 to 165
8,Oc1ccc(Nc2nc(Cl)nc(Cl)n2)cc1Cl,180
9,O=C(CN1CCN(C(c2ccccc2)c2ccccc2)CC1)Nc1ccc2ncnn2n1,203 to 204
10,CCOC(=O)C1=C(C)NC(C)=C(C(=O)OCC)C1c1ccc(F)c(Br)c1,118 to 119
11,N#CC1=C(N)Oc2c(ccc3cnccc23)C1c1cccc([N+](=O)[O-])c1 (stereo not drawn),239 to 243
12,COC(=O)C(C)c1ccc2cc(OC(=O)CO[N+](=O)[O-])ccc2c1 (stereo not drawn),72 to 74
13,CCc1cncc(-c2nc(C(=O)N(C)C)c3c4ccc(Cl)cc4n(C)c3n2)c1,218 to 219
14,CNC(=O)c1cc2c(Oc3ccc(C4=NCCN4)cc3)cncc2s1,> 280
15,Cc1c(NC(=O)CC(C)(C)C)c(C)c2c(c1-c1cccc(F)c1)OCC2c1ccc(C(C)C)cc1 (stereo not drawn),182 to 183
16,CCOCc1nc2c(N)nc3cccnc3c2n1CC1(O)CCCC1,165 to 166
17,CC(C)CC(=O)Nc1cccc(-c2ccnc3c(-c4cccc(Cl)c4)cnn23)c1,169 to 171
18,c1csc(-c2noc(COc3ccc(CCCn4ccnc4)cc3)n2)c1,118 to 119
19,O=C(Cn1c(-c2ccccc2)ncc(NS(=O)(=O)c2ccccc2)c1=O)NC(Cc1ccccc1)C(=O)C(F)(F)F (stereo not drawn),92 to 94
20,CS(=O)c1ccccc1S(=O)(=O)c1ccc(NC(=O)C(C)(O)C(F)(F)F)c(Cl)c1 (stereo not drawn),118 to 120
21,C=CCN1CCN(c2cc3c(cc2Cl)c(=O)c(C(=O)O)cn3CC)CC1,212
22,N#CC(C=O)c1ccc(NS(=O)(=O)c2cccc(Cl)c2Cl)cc1 (stereo not drawn),88 to 102
